The test system of assay [1] is CCRF-CEM. Description: CCK-8 proliferation, CCRF-CEM. In kind it is cell-based, Human. Particulars: Homo sapiens, CCRF-CEM; CCK-8; 96 hours; read-out: Inhibitory activity (IC50) on tumor cell proliferation, CCRF-CEM. In outline:
(§1)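 Tumor cells were cultured at 37°C with 5% CO2, seeded, and after 24h treated with compounds at 10 concentrations starting at 10µM (5-fold serial dilutions).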

Assay [2] concerns Jurkat. As to the kind of experiment: CCK-8 proliferation, Jurkat. Particulars: Homo sapiens, Jurkat; CCK-8; 96 hours; read-out: Inhibitory activity (IC50) on tumor cell proliferation, Jurkat. It counts as cell-based, Human. An outline of the steps:
as §1

Assay [3] has as its system CAL-62. As to the kind of experiment: CCK-8 proliferation, CAL-62. It counts as cell-based. As to conditions: Homo sapiens, 72 hours, read-out: Inhibitory activity (IC50) on tumor cell proliferation, CAL-62. On the procedure:
(§2) The tumor cells used herein were cultured in a cell culture medium listed in table A1 at 37°C in an incubator with 5% CO2. Prior to experimentation, all cell lines used were correctly identified by STR profiling, and tested negative for mycoplasma contamination using a mycoplasma detection kit through routine screenings. Table A1. Tumor cells and cell culture medium used in the present disclosure
(§3) IC50 values of the compounds of the present disclosure (including the compounds in Table 1, and compounds of examples) were measured using the Meilun Cell Counting Kit-8 kit from Dalian Meilun Biotech Co., Ltd. Assay details are as follows: tumor cells were seeded in a 96-well plate at a density listed in Table A2. After 24h, 100 µL of the inoculated cells were treated with 0.5µL of the compounds of the present disclosure (including the compounds in Tables 1 and 2, and compounds of examples) at 10 different successively decreasing concentrations (starting at the highest concentration of 10µM; 5-fold serial dilutions). After the cells were treated with the compounds of the present disclosure for a period of time, the cell viability detection reagent was added to the culture medium for cell viability assessment according to the instructions provided with the CCK-8 kit. […] The growth inhibition of the compounds of the present disclosure on cells was plotted by Prism Graphpad software, and the IC50 values of the compounds of the present disclosure were calculated therefrom. […] Seeding protocol and treatment time for tumor cells

The test system of assay [4] is Vcap. As to the kind of experiment: CCK-8 proliferation, Vcap. In kind it is cell-based. As to conditions: Homo sapiens, 96 hours, read-out: Inhibitory activity (IC50) on tumor cell proliferation, Vcap. As for the experimental part:
as §2
IC50 values of the compounds of the present disclosure (including the compounds in Table 1, and compounds of examples) were measured using the Meilun Cell Counting Kit-8 kit from Dalian Meilun Biotech Co., Ltd. Assay details are as follows: tumor cells were seeded in a 96-well plate at a density listed in Table A2. After 24h, 100 µL of the inoculated cells were treated with 0.5µL of the compounds of the present disclosure (including the compounds in Tables 1 and 2, and compounds of examples) at 10 different successively decreasing concentrations (starting at the highest concentration of 10µM; 5-fold serial dilutions). […] The growth inhibition of the compounds of the present disclosure on cells was plotted by Prism Graphpad software, and the IC50 values of the compounds of the present disclosure were calculated therefrom. […]

Assay [5] relates to SW620. As to the kind of experiment: CCK-8 proliferation, SW620. Particulars: Homo sapiens, SW-620; CCK-8; 96 hours; read-out: Inhibitory activity (IC50) on tumor cell proliferation, SW620. It counts as cell-based. An outline of the steps:
as §1

Assay [6] relates to MGC-803. Description: CCK-8 proliferation, MGC-803 (heads: MGC80-3, MGC803). Particulars: Homo sapiens, MGC-803, CCK-8, 72 hours. In kind it is cell-based, Human. In outline:
as §1

Assay [7] deals with T1, BCR-ABL (Homo sapiens, UniProt P00519+P11274+Q96SW2, E27K).
T1 construct: evaluate the effects of the compounds of the present disclosure on the expression of target proteins in cells; endogenous in cells; host or cells: K562
T1 sequence (P11274+P00519 fused, stated change not applied): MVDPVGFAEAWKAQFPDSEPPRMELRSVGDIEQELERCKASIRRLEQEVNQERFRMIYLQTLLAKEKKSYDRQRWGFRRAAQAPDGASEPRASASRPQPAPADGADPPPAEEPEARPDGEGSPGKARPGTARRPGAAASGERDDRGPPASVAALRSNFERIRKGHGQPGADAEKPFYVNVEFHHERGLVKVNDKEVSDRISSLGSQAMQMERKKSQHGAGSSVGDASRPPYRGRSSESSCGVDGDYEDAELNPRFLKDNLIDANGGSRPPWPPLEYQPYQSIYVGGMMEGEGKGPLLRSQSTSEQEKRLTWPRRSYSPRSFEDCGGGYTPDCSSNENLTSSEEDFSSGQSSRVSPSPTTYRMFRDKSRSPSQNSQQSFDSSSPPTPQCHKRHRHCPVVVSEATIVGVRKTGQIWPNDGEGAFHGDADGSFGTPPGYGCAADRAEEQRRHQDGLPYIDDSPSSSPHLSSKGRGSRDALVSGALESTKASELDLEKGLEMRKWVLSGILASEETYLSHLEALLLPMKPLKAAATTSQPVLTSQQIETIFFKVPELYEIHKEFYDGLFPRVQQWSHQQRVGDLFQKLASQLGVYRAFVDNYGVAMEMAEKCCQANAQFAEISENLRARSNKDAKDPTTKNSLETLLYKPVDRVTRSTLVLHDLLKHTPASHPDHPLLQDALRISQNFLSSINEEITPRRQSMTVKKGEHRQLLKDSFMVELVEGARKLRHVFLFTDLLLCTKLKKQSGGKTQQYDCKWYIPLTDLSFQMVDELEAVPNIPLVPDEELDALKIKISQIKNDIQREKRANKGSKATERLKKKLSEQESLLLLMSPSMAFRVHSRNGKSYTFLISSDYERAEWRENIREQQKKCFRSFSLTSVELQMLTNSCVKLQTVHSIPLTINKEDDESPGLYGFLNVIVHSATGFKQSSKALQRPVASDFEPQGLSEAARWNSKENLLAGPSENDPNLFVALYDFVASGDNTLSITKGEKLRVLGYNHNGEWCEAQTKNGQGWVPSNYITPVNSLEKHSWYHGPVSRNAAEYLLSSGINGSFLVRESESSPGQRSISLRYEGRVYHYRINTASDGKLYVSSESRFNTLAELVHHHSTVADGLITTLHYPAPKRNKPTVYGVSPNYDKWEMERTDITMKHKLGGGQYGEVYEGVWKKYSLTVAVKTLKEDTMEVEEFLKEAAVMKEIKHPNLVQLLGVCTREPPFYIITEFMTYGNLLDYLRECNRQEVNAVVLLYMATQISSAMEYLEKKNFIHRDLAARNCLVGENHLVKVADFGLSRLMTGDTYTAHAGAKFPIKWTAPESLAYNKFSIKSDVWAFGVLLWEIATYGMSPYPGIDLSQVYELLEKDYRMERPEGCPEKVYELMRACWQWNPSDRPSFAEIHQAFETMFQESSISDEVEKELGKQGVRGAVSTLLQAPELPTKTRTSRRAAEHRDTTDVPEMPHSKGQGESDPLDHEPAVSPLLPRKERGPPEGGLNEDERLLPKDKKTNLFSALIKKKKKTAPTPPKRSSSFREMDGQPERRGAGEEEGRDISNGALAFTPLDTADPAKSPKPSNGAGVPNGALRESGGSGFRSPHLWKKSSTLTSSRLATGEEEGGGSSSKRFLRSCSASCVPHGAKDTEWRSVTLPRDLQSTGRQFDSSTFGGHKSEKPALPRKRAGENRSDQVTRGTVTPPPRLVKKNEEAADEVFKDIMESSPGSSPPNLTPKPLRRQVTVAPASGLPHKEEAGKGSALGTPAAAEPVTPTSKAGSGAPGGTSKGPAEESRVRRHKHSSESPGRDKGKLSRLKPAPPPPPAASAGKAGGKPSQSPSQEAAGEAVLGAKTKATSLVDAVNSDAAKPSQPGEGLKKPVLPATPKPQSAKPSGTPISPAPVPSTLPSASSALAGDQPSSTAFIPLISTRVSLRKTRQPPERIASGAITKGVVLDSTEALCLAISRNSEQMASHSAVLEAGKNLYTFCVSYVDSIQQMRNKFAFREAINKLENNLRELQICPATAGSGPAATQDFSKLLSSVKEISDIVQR
T1 sequence (Q16531 whole entry, stated change not applied, further chain): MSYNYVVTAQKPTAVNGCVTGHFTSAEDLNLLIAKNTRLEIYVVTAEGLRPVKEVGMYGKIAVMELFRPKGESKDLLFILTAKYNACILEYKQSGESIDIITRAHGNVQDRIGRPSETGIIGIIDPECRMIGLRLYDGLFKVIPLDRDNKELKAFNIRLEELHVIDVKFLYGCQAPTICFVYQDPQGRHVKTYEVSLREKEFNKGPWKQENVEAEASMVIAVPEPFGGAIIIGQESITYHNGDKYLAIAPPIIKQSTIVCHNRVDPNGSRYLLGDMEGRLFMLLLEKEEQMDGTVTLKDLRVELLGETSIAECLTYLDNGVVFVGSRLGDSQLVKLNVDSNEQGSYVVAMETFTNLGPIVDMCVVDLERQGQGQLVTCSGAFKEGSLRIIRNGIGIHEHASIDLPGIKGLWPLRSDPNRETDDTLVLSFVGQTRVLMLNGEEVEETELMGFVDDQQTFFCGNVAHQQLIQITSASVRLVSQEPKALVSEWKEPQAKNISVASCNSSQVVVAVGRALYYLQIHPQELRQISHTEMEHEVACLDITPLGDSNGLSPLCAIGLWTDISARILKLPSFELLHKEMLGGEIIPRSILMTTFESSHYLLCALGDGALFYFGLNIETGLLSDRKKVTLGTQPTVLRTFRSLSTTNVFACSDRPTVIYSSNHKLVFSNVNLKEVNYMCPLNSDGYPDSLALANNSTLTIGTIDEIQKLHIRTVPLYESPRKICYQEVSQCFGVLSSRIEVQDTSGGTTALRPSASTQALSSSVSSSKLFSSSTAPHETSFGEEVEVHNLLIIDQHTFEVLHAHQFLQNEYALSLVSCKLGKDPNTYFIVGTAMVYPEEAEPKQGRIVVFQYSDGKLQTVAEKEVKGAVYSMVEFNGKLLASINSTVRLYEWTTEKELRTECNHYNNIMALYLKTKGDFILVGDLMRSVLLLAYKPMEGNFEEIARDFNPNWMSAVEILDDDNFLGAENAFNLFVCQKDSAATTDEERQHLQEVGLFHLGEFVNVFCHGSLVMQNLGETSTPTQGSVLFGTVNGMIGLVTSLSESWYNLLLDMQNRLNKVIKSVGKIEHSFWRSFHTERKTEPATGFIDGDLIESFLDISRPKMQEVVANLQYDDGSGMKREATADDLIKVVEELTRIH
T1 sequence (Q96SW2 whole entry, stated change not applied): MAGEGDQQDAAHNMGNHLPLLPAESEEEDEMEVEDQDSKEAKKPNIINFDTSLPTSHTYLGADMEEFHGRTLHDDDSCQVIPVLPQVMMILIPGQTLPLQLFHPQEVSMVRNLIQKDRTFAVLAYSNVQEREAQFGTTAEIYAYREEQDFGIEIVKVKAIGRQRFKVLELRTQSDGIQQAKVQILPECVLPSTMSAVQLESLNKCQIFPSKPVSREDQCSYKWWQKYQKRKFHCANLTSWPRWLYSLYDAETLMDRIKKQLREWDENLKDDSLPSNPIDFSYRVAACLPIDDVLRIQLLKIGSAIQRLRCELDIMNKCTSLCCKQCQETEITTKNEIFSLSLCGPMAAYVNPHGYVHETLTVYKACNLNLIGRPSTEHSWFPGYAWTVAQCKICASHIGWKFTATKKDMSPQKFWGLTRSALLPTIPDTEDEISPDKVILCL
Description: Western blot degradation of BCR-ABL (K562 Cell). It counts as cell-based. As to conditions: Table D15. On the procedure:
(§4) Conventional Western blot assay was performed to evaluate the effects of the compounds of the present disclosure on the expression of target proteins in cells.
(§5) (1) Cell Seeding and Protein Harvesting: The selected cells were processed according to the cell seeding procedure and protein harvesting procedure in Table III-2. Table III-2 Cell Seeding and Protein Harvesting Procedures
(§6) (2) To the collected supernatant, 5X SDS sample loading buffer was added, followed by denaturation at 95°C for 5 minutes. The denatured samples were then separated by SDS-PAGE electrophoresis on a polyacrylamide gel. Proteins were transferred to a nitrocellulose membrane (0.45 µm NC membrane), blocked with blocking buffer at room temperature for 1 hour, and subjected to antibody incubation and development procedures according to the antibody manufacturer's instructions (Cell Signaling Technology).
(§7) Half-Maximal Degradation Concentration value (the drug concentration required for degrading proteins by 50%, abbreviated as DC50) reads method: comparing the grayscale values of Western blot bands from drug-treated samples with those from blank DMSO-treated controls, and identifying the drug concentration range at which the grayscale value is half that of the DMSO-treated control bands.
DC50 values can be calculated using ImageJ software to measure grayscale values of Western blot bands from drug-treated samples. The concentration-response curve is fitted to estimate the drug concentration corresponding to half the grayscale value.
Target protein remaining (%) refers to the percentage of target protein remaining in hPBMC cells after treatment with protein degrader compounds.
Calculation method for target protein remaining (%): Use ImageJ software to measure grayscale values of Western blot bands from drug (protein degrader)-treated samples. The grayscale value of drug-treated bands is divided by that of internal control protein bands, and the resulting quotient is normalized to obtain the relative percentage of remaining target protein after protein degrader treatment. […]
In general terms: A western blot detects proteins with antibodies after separation by electrophoresis.

For assay [8], the system named is LNcap. As to the kind of experiment: CCK-8 proliferation, LNcap. In kind it is cell-based. As to conditions: Homo sapiens, LNCaP; CCK-8; 96 hours; read-out: Inhibitory activity (IC50) on tumor cell proliferation, Lncap. In outline:
as §1

For assay [9], the system named is CFPAC-1. Description: CCK-8 proliferation, CFPAC-1. It counts as cell-based. Particulars: Homo sapiens, 72 or 96 hours, read-out: Inhibitory activity (IC50) on tumor cell proliferation, CFPAC-1. On the procedure: as §2, §3
The test system of assay [10] is DU-145. As to the kind of experiment: CCK-8 proliferation, DU-145. It counts as cell-based. As to conditions: Homo sapiens, 96 hours, read-out: Inhibitory activity (IC50) on tumor cell proliferation, DU-145. On the procedure: as §2, §3
In assay [11] the target is T2, AR (Homo sapiens, UniProt P10275+Q96SW2, T878A).
T2 construct: evaluate the effects of the compounds of the present disclosure on the expression of target proteins in cells; endogenous in cells; host or cells: LnCap
T2 sequence (P10275 whole entry T878A): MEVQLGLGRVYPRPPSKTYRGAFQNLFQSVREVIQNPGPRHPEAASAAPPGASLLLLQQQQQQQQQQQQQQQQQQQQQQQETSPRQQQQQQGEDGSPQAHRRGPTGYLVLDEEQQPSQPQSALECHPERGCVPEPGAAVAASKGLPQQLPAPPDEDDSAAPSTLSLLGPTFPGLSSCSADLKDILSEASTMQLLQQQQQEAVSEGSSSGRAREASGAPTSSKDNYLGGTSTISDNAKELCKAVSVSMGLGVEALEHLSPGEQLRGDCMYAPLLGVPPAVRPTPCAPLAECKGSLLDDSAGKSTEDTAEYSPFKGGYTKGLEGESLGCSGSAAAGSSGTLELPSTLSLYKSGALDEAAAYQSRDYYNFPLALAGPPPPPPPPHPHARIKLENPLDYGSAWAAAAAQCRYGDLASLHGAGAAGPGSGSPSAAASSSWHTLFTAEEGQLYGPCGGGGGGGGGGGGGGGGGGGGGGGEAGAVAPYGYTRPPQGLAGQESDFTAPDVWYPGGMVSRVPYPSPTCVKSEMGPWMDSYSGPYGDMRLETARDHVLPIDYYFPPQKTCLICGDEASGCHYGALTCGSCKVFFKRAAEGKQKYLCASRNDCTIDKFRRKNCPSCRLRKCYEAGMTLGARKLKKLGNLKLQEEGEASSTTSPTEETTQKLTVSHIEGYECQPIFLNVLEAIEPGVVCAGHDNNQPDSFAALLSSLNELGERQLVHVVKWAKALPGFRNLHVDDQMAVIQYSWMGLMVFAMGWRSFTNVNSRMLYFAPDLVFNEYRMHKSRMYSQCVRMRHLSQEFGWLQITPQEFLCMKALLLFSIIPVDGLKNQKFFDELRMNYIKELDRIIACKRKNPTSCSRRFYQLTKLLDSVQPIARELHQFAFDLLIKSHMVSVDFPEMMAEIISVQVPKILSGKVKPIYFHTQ
T2 sequence (Q96SW2 whole entry): as the sequence (Q96SW2 whole entry, stated change not applied) above
T2 sequence (Q16531 whole entry partner): as the sequence (Q16531 whole entry, stated change not applied, further chain) above
As to the kind of experiment: Western blot degradation of AR (LnCap Cell). It counts as cell-based. As to conditions: Table D11. As for the experimental part: as §4, §5, §6, §7
DC50 values can be calculated using ImageJ software to measure grayscale values of Western blot bands from drug-treated samples. […]

Assay [12] relates to BXPC-3. Description: CCK-8 proliferation, BXPC-3. It counts as cell-based. As to conditions: Homo sapiens, 96 hours, read-out: Inhibitory activity (IC50) on tumor cell proliferation, BXPC-3. An outline of the steps:
as §1

Assay [13] relates to THP-1. As to the kind of experiment: CCK-8 proliferation, THP-1. It counts as cell-based. Particulars: Homo sapiens, 72 hours, read-out: Inhibitory activity (IC50) on tumor cell proliferation, THP-1. An outline of the steps:
as §1

In assay [14] the test system is H520. As to the kind of experiment: CCK-8 proliferation, H520. It counts as cell-based. As to conditions: Homo sapiens, NCI-H520, 96 hours, read-out: Inhibitory activity (IC50) on tumor cell proliferation, H520. On the procedure:
as §2, §3

For assay [15], the target named is T3, human Cereblon WT GST-tagged protein (Homo sapiens, UniProt Q96SW2).
T3 construct: purchased CISBIO 64BDCRBNPEH
T3 sequence (Q96SW2 whole entry): as the sequence (Q96SW2 whole entry, stated change not applied) above
Description: CRBN binding, HTRF (CEREBLON BINDING kit). Particulars: Table II-2, CRBN binding screening, HTRF. In outline: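 After 3 h at room temperature, emission at 665 and 620 nm was measured in a homogeneous time-resolved fluorescence format. Compounds competed with a Thalidomide-Re probe for GST-tagged wild-type human CRBN, which was labelled with a Eu anti-GST antibody.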
A general note: TR-FRET usually uses a lanthanide donor and a delayed reading to cut background.

Where [16] appears, read: read-out: Inhibitory activity (IC50) on tumor cell proliferation, MGC803.

Results on seven compounds are retold here after patent publication EP4678638A1, “NEW E3 UBIQUITIN LIGASE LIGAND, PROTEIN DEGRADATION AGENT AND USE THEREOF” (priority 2023, dated 2024).

pIC50: −log10 of the molar value. Where two headings read alike, the source gives them in different places.

For the compound `O=C1CCC(c2ccc(CN3CCN(c4ccc([C@@H]5c6ccc(O)cc6CC[C@@H]5c5ccccc5)cc4)CC3)cc2)C(=O)N1` (stereo partly drawn) [GT-03856, 3-(4-((4-(4-((1R,2S)-6-hydroxy-2-phenyl-1,2,3,4-tetrahydronaphthalen-1-yl)phenyl)piperazin-1-yl)methyl)phenyl)piperidine-2,6-dione], the pIC50 in assay [1] was 6.30 to 7.00; in assay [2], 6.30 to 7.00; in [3] it was 6.30 to 7.00; in assay [4], 6.00 to 6.30.
`O=C1CCC(c2ccc(CN3CCC(N4CCN(c5ncc(C(=O)Nc6ccc(OC(F)(F)Cl)cc6)cc5-c5cc[nH]n5)CC4)CC3)cc2F)C(=O)N1` (centres unmarked) [GT-04059, N-(4-(chlorodifluoromethoxy)phenyl)-6-(4-(1-(4-(2,6-dioxopiperidin-3-yl)-3-fluorobenzyl)piperidin-4-yl)piperazin-1-yl)-5-(1H-pyrazol-3-yl)nicotinamide]: the results for the pIC50 in assay [5] and in assay [6] (setting [16]) were 6.30 to 7.00 and 6.00 to 6.30, respectively. Also, the “Degradation of substrate protein BCR-ABL (substrate protein remaining %)” value in assay [7] is reported as “A (A is defined as 0% ≤ substrate protein remaining % ≤ 80%)”.
As for `Cc1ccc(C(=O)Nc2ccc(CN3CCN(Cc4ccc(C5CCC(=O)NC5=O)c(F)c4)CC3)c(C(F)(F)F)c2)cc1C#Cc1cnc2cccnn12` (centres unmarked) [GT-03937, N-(4-((4-(4-(2,6-dioxopiperidin-3-yl)-3-fluorobenzyl)piperazin-1-yl)methyl)-3-(trifluoromethyl)phenyl)-3-(imidazo[1,2-b]pyridazin-3-ylethynyl)-4-methylbenzamide], the pIC50 in [5] is 7.00 to 7.30; in assay [6] (setting [16]), 6.30 to 7.00; in assay [1] it was 7.00 to 7.30; in [2], 7.00 to 7.30; in assay [8], 7.00 to 7.30; in assay [9], 6.30 to 7.00. Moreover, the “Degradation of substrate protein BCR-ABL (substrate protein remaining %)” value in [7] is on record as “A (A is defined as 0% ≤ substrate protein remaining % ≤ 80%)”.
With `O=C1CC[C@H](N2Cc3cc(N4CCN(CC5CCN(c6ccc([C@@H]7c8ccc(O)cc8CC[C@@H]7c7ccccc7)cc6)CC5)CC4)ccc3C2=O)C(=O)N1` [ARV-471, reference compound], the pIC50 in [5] was 5.30 to 6.00; in [6] (read-out: Inhibitory activity (IC50) on tumor cell proliferation, MGC80-3), below 5.00; in [1] it was below 5.00; in [2] it was below 5.00; in assay [3], below 5.00; in assay [4], below 5.00.
Turning to `Cc1ccc(-c2c(C)noc2C)cc1N(CC1CCN(Cc2ccc(N3CCC(=O)NC3=O)cn2)CC1)c1ccc(C2(C#N)CC2)cc1` [GT-06411, 1-(4-((5-(3,5-dimethylisoxazol-4-yl)-2-methylphenyl)((1-((5-(2,4-dioxotetrahydropyrimidin-1(2H)-yl)pyridin-2-yl)methyl)piperidin-4-yl)methyl)amino)phenyl)cyclopropane-1-carbonitrile], in [10], the pIC50 is 6.00 to 6.30. Moreover, the “Degradation of substrate protein AR (substrate protein remaining %)” value in [11] is “A (A is defined as 0% ≤ substrate protein remaining % ≤ 80%)”.
Regarding `O=C1CCC(c2ccc(CN3CCC(N4CCN(c5ncc(C(=O)Nc6ccc(OC(F)(F)Cl)cc6)cc5-c5cc[nH]n5)CC4)CC3)cc2)C(=O)N1` (centres unmarked) [GT-04058, N-(4-(chlorodifluoromethoxy)phenyl)-6-(4-(1-(4-(2,6-dioxopiperidin-3-yl)benzyl)piperidin-4-yl)piperazin-1-yl)-5-(1H-pyrazol-3-yl)nicotinamide], the “Degradation of substrate protein BCR-ABL (substrate protein remaining %)” value in assay [7] is given as “A (A is defined as 0% ≤ substrate protein remaining % ≤ 80%)”.
In the case of `Cn1cc(-c2cc(S(C)(=O)=O)ccc2OCc2cccc(NC3CCC(=O)NC3=O)c2)c2cc[nH]c2c1=O` (centres unmarked) [GT-04641, 3-((3-((2-(6-methyl-7-oxo-6,7-dihydro-1H-pyrrolo[2,3-c]pyridin-4-yl)-4-(methylsulfonyl)phenoxy)methyl)phenyl)amino)piperidine-2,6-dione], the pIC50 in assay [12], in assay [13] and in assay [14] was 6.00 to 6.30 each time. In [15] (at 0.5µM, read-out: Inhibition rate (%) at 0.5µM), the inhibition at 0.5 µM was 20 to 30%. Also, the inhibition at 2 µM in assay [15] (at 2 µM, read-out: Inhibition rate (%) at 2 µM) was in the range of 60 to 80%. Further, in [11], the “Degradation of substrate protein AR (substrate protein remaining %)” value was “A (A is defined as 0% ≤ substrate protein remaining % ≤ 80%)”.

Usually inhibition stands for the relative decrease from the control value, in per cent.
